Reference: patent US7256178B2, “Physiologically active substances” (priority 2002, dated 2007)

Experiments:
[1] = tested on: WiDr human colon cancer cells; experiment: Action of inhibiting proliferation of WiDr human colon cancer cells (MTT); assay type: cell-based; conditions: 72 h, three days, n=2 to 3, read-out: WiDr human colon cancer cell proliferation inhibitory activity (IC50: nM)
Experimental: 2×10^3 cells/well of WiDr human colon cancer cells cultured in a Dulbecco's modified Eagle's medium containing 10% fetal bovine serum, penicillin (100 units/mL) and streptomycin (100 μg/mL) (DMEM, manufactured by Sigma Co.) were plated in a 96-well plate. The cells were cultured in a CO2 incubator overnight, and 20 μL of the above-described culture solution containing the test compound at threefold serial dilutions was added for culturing the cells. After three days, 50 μL of a 3.3 mg/mL MTT solution was added, and the cells were further cultured for one hour. Then, formazan generated by reduction using living cells was extracted with 100 μL of DMSO to measure the absorbance (A540/A660), which was used as an index of the number of living cells.
The concentration for inhibiting 50% of proliferation of WiDr human colon cancer cells (IC50 value) of the compound of the formula (I) was determined (n=2 to 3).

VEGF promoter = experiment: VEGF transcription inhibitory activity (VEGF-PLAP reporter, U251/1-8 cells under hypoxic conditions); assay type: cell-based; conditions: Homo sapiens, U-251, hypoxic (2% O2) incubator 18 hours, n=2 to 3
Excerpt: In order to prepare a reporter system in which transcription from a VEGF promoter is reflected, a VEGF promoter sequence was cloned and inserted into a placental alkaline phosphatase (PLAP) vector to construct a reporter vector.
In order to obtain a promoter region of human VEGF, a VEGF genome was cloned from a phage library. Based on VEGF cDNA (GenBank accession number: X62568), a PCR primer in the sequence described as SEQ ID NO: 1 or SEQ ID NO: 2 was designed to conduct PCR, thereby obtaining about a fragment of 340 bp. A human genomic phage library (human genomic library, Clontech) was screened using this fragment as a probe to obtain pUC18-VEGFA containing a VEGF5′ franking region of about 5.4 kb. This pUC18-VEGFA was cut with Kpn I/Nhe I to obtain a VEGF promoter region of about 2.3 kb, and the region was inserted into the multicloning site Kpn I/Nhe I of the placental alkaline phosphatase (PLAP) reporter vector (Goto et al., Mol. Pharmacol., 49, 860-873, 1996) to construct a VEGF-PLAP vector.
The above-described VEGF-PLAP vector was introduced into U251 cells cultured in a Dulbecco's modified Eagle's medium containing 10% fetal bovine serum (DMEM, manufactured by Sigma Co.), and cultured in the presence of 1 mg/mL G418 (Merck & Co., Inc.) to establish a G418-resistant stable clone (U251/1-8 cells).
As in a report by Minchenko et al. (Cell. Mol. Biol. Res., 40, 35-39, 1994), U251/1-8 cells were confirmed to be a reporter system which secretes PLAP into a culture medium under hypoxic conditions (2% O2 incubator), and in which transcription from a VEGF promoter is reflected. A compound inhibiting VEGF production induced by hypoxic stimulation was screened using this clone.
In order to eliminate influence of the alkali phosphatase in the serum, the U251/1-8 cells were washed with a sufficient amount of PBS (Phosphate buffered saline) twice, and treated at 65° C. for 20 minutes to inactivate the alkaline phosphatase in the serum. 4×10^4 cells/180 μL per well of the cells diluted in the DMEM culture medium containing 10% of this serum were plated in a 96-well plate.
The cells were cultured in a CO2 incubator (5% CO2) at 37° C. overnight, and 20 μL of the above-described culture solution containing the test compound at threefold serial dilutions was added. Subsequently, the cells were cultured in hypoxic (2% O2) incubator for 18 hours. To measure the PLAP activity in the culture supernatant liquid, 10 μL of the culture supernatant liquid was added to 50 μL of a 0.28 M Na2CO3—NaHCO3 buffer solution (pH 10.0, 8.0 mM MgSO4), and finally 50 μL of an alkaline phosphatase substrate (Lumistain, Genome Science Laboratories Co., Ltd.) was added thereto. After the reaction for one hour, chemiluminescence was detected using a microplate reader (PerkinElmer) to measure the PLAP activity as the alkaline phosphatase activity. The PLAP activity under normoxic conditions was defined as 0%, the PLAP activity of the cells when treated under hypoxic conditions was defined as 100%, and the concentration for inhibiting 50% of the PLAP activity was defined as the IC50 value of PLAP. The IC50 values of the 6-deoxy 11107D derivatives shown in examples were determined (n=2 to 3).

[2] = Stability in an aqueous solution (HPLC); assay type: physicochemical; conditions: pH 7 Britton-Robinson buffer solution, 25° C., 24 hours
Experimental: The compound of the formula (I) was dissolved in DMSO at a concentration of 10 to 20 mM, and the solution was diluted with a pH 7 Britton-Robinson buffer solution to about 500-fold. This solution was used as a sample solution, and was incubated at 25° C. for 24 hours.
The sample solution before and after the incubation was analyzed using high-performance liquid chromatography to obtain a chromatogram. The percentage of the compound remaining in the sample solution after the incubation was determined from the peak area of the chromatogram.

SMILES	IC50 [1] [nM]	IC50 (VEGF promoter) [nM]	Remaining percentage (%) [2] [%]
CCC(O)C(C)C1OC1CC(C)(O)/C=C/C=C(\C)C1OC(=O)CC(O)CCC(C)C(OC(=O)N2CCN(C)CC2)/C=C/C1C (stereo not shown) [Compound 18, (8E,12E,14E)-3,16,21-trihydroxy-6,10,12,16,20-pentamethyl-7-((4-methylpiperazin-1-yl)carbonyl)oxy-18,19-epoxytricosa-8,12,14-trien-11-olide]	0.5	1	95.0
CCC(O)C(C)C1OC1CC(C)(O)/C=C/C=C(\C)C1OC(=O)CC(O)CCC(C)C(OC(=O)N2CCCN(C)CC2)/C=C/C1C (stereo not shown) [Compound 19, (8E,12E,14E)-3,16,21-trihydroxy-6,10,12,16,20-pentamethyl-7-((4-methylhomopiperazin-1-yl)carbonyl)oxy-18,19-epoxytricosa-8,12,14-trien-11-olide]	0.3	1.1	95.5
CCC(O)C(C)C1OC1CC(C)(O)/C=C/C=C(\C)C1OC(=O)CC(O)CCC(C)C(OC(=O)N(C)CCN(CC)CC)/C=C/C1C (stereo not shown) [Compound 20, (8E,12E,14E)-7-(N-(2-(N′,N′-diethylamino)ethyl-N-methyl)carbamoyloxy)-3,16,21-trihydroxy-6,10,12,16,20-pentamethyl-18,19-epoxytricosa-8,12,14-trien-11-olide]	0.2	1.1	95.6
CCC(O)C(C)C1OC1CC(C)(O)/C=C/C=C(\C)C1OC(=O)CC(O)CCC(C)C(OC(=O)N2CCC(N3CCCCC3)CC2)/C=C/C1C (stereo not shown) [Compound 21, (8E,12E,14E)-3,16,21-trihydroxy-6,10,12,16,20-pentamethyl-7-((4-(piperidin-1-yl)piperidin-1-yl)carbonyl)oxy-18,19-epoxytricosa-8,12,14-trien-11-olide]	0.6	2	94.8
CCC(O)C(C)C1OC1CC(C)(O)/C=C/C=C(\C)C1OC(=O)CC(O)CCC(C)C(OC(=O)NCCN(CC)CC)/C=C/C1C (stereo not shown) [Compound 22, (8E,12E,14E)-7-(N-(2-(N′,N′-diethylamino)ethyl)carbamoyloxy)-3,16,21-trihydroxy-6,10,12,16,20-pentamethyl-18,19-epoxytricosa-8,12,14-trien-11-olide]	1.1	2.5	95.4
CCC(O)C(C)C1OC1CC(C)(O)/C=C/C=C(\C)C1OC(=O)CC(O)CCC(C)C(OC(=O)N2CCN(CC(C)(C)C)CC2)/C=C/C1C (stereo not shown) [Compound 23, (8E,12E,14E)-7-((4-(2,2-dimethylpropyl)piperazin-1-yl)carbonyl)oxy-3,16,21-trihydroxy-6,10,12,16,20-pentamethyl-18,19-epoxytricosa-8,12,14-trien-11-olide]	3.8	14.7	–
CCC(O)C(C)C1OC1CC(C)(O)/C=C/C=C(\C)C1OC(=O)CC(O)CCC(C)C(OC(=O)N(C)C2CCN(C)CC2)/C=C/C1C (stereo not shown) [Compound 29, (8E,12E,14E)-3,16,21-trihydroxy-6,10,12,16,20-pentamethyl-7-(N-methyl-N-(1-methylpiperidin-4-yl)carbamoyloxy)-18,19-epoxytricosa-8,12,14-trien-11-olide]	0.3	1.3	–
CCC(O)C(C)C1OC1CC(C)(O)/C=C/C=C(\C)C1OC(=O)CC(O)CCC(C)C(OC(=O)N2CCCN(C(C)C)CC2)/C=C/C1C (stereo not shown) [Compound 39, (8E,12E,14E)-3,16,21-trihydroxy-7-((4-isopropylhomopiperazin-1-yl)carbonyl)oxy-6,10,12,16,20-pentamethyl-18,19-epoxytricosa-8,12,14-trien-11-olide]	0.5	1.3	95.9
CCC(O)C(C)C1OC1CC(C)(O)/C=C/C=C(\C)C1OC(=O)CC(O)CCC(C)C(OC(=O)N2CCN(C(C)C)CC2)/C=C/C1C (stereo not shown) [Compound 44, (8E,12E,14E)-3,16,21-trihydroxy-7-((4-isopropylpiperazin-1-yl)carbonyl)oxy-6,10,12,16,20-pentamethyl-18,19-epoxytricosa-8,12,14.-trien-11-olide]	0.6	2.4	95.4
